This note sets out measurements from patent publication US20140057915A1, “KINASE INHIBITORS” (TOPIVERT PHARMA LIMITED, priority 2012, published 2014).

Data set [1] addresses GSK3α (Homo sapiens, UniProt P49840). Briefly: GSK 3α enzyme inhibition (FRET), Method 1. The data set is classed as biochemical. The settings on record: Table 4a1. The procedure, abridged: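 Steps: preincubate GSK3α with compound 2 hr at room temperature; start reaction with peptide and ATP for 1 hr; develop with site-specific protease for 1 hr; measure fluorescence and take the coumarin/fluorescein ratio as the phosphorylation level.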

The target of data set [2] is Syk (Homo sapiens, UniProt P43405). Briefly: Syk enzyme inhibition (FRET). The data set is classed as biochemical. The settings on record: Table 4a1. The procedure, abridged:
(§1)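 Enzyme was preincubated with test compound (added as 4, 0.4, 0.04 or 0.004 μg/mL solutions) for 2 hr at RT. FRET peptide (8 μM solution) and ATP solution (800 μM for c-Src, 60 μM for Syk) were then added for 1 hr, followed by 1 hr protease development.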

Data set [3] deals with TNFα release, d-U937 cells. Briefly: LPS-induced TNFα release in d-U937 cells. The format is cell-based. The settings on record: Homo sapiens, dU937; relative to 10 μg/mL BIRB796; Table 4c1; read-out: LPS Induced Release of Cytokine in d-U937 Cells, TNFα REC50. The method in brief:
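U937 cells differentiated with PMA (100 ng/mL, 48–72 hr), pre-treated with compound for 2 hr, then stimulated with E. coli LPS (0.1 μg/mL) for 4 hr. Supernatant cytokine measured by sandwich ELISA; inhibition versus vehicle control, REC50 from concentration-response curve.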

Data set [4] concerns ICAM-1 expression, BEAS2B cells. Briefly: Poly I:C-induced ICAM-1 expression in BEAS2B cells. The format is cell-based. The settings on record: Homo sapiens, BEAS-2B; read-out: Poly IC induced ICAM1 in BEAS2B, IC50. The procedure, abridged:
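BEAS2B human bronchial epithelial cells pre-incubated 2 h with compound, then transfected with poly I:C (1 μg/mL) plus Oligofectamine. After 18 h, cell-surface ICAM-1 read by cell-based ELISA (A450–655), normalised to Crystal Violet cell number (A595); inhibition calculated against vehicle control at each concentration.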

For data set [5], the target named is cSrc (Homo sapiens, UniProt P12931). Briefly: c-Src enzyme inhibition (FRET). The data set is classed as biochemical. The following applies: Table 4a1. The method in brief: as §1
cSrc, sequence (P12931 whole entry): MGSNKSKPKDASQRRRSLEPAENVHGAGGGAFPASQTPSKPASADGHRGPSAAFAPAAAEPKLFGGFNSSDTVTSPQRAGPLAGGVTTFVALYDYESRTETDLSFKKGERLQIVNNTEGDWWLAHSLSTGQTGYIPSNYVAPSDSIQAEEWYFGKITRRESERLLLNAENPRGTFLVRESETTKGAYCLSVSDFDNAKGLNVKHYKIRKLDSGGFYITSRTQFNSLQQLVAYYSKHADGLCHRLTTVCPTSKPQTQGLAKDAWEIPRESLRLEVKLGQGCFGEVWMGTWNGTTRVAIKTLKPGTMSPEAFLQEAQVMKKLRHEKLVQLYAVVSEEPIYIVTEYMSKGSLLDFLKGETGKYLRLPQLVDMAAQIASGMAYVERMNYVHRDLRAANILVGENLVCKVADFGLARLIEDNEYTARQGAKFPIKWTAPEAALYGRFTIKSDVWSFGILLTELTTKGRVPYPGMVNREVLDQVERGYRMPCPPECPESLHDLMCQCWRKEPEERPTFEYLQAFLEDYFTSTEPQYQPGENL
Data set [6] has as its system d-U937 cells. Briefly: Cell viability: MTT assay. The format is cell-based, human. The following applies: 1 μg/mL. The method in brief:
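Differentiated U937 cells exposed to compound at 1 or 10 μg/mL, either 4 h in 5% FCS or 24 h in 10% FCS RPMI1640. MTT then added for 1 h, formazan dissolved in DMSO and read at 550 nm. Viability loss given as % versus 0.5% DMSO vehicle; apparent gains appear negative.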

Data set [7] deals with IL-8 release, d-U937 cells. Briefly: LPS-induced IL-8 release in d-U937 cells. The settings on record: Homo sapiens, dU937; Table 4c1; read-out: LPS Induced Release of Cytokine in d-U937 Cells, IL-8 IC50. The format is cell-based. The procedure, abridged: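 IL-8 release after a 4 hr challenge with LPS (0.1 μg/mL, E. coli 0111:B4) following a 2 hr compound pretreatment. Cells were human U937 monocytes differentiated to macrophage-type with PMA 100 ng/mL for 48–72 hr. Relative 50% effective concentration derived from concentration–response data.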

Bounds are passed on as bounds.

GSK3α, sequence (P49840 whole entry): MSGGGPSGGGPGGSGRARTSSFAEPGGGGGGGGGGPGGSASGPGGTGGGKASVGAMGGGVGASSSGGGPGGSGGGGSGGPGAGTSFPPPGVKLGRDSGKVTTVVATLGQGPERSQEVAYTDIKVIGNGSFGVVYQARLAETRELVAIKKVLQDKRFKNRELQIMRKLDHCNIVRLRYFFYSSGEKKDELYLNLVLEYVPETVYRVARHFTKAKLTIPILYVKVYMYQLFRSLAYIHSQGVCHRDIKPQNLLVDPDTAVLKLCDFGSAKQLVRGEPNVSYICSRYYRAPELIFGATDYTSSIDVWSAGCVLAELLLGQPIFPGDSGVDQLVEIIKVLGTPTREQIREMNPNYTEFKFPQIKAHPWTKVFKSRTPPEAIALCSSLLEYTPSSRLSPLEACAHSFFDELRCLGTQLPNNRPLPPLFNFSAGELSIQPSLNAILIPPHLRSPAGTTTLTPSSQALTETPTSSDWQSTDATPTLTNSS

On to `Cc1ccc(-n2nc(C(C)(C)C)cc2NC(=O)Nc2ccc(Oc3ccnc(Nc4cccc(C(=O)NCCN5CCOCC5)c4)n3)c3ccccc23)cc1` [Example 3, 3-((4-((4-(3-(3-(tert-Butyl)-1-(p-tolyl)-1H-pyrazol-5-yl)ureido)naphthalen-1-yl)oxy)pyrimidin-2-yl)amino)-N-(2-morpholinoethyl)benzamide], for which the IC50 in data set [1] turned out to be 286 nM; in data set [2] it was 11 nM; in data set [4], 0.7 nM; in data set [5], 1 nM; in data set [7], 1.6 nM. For the same molecule, the EC50 in data set [3] came out at 0.6 nM. Besides, the “Cell viability at time point in d-U937 cells, 4 h” value in data set [6] is “−ve (−ve and +ve indicate that the value is below and above respectively, the no significant effect threshold, defined as 30% inhibition at 1 μg/mL at the time point indicated)”. Also, the “Cell viability at time point in d-U937 cells, 24 h” value (from here on “Cell viability at time point … 24 h”) in data set [6] was “−ve (−ve and +ve indicate that the value is below and above respectively, the no significant effect threshold, defined as 30% inhibition at 1 μg/mL at the time point indicated)”.
On to `COc1ccc(Nc2nccc(Oc3ccc(NC(=O)Nc4cc(C(C)C)nn4-c4ccc(C)cc4)c4ccccc34)n2)cc1C(=O)NCCN1CCOCC1` [Example 70, 5-((4-((4-(3-(3-isopropyl-1-(p-tolyl)-1H-pyrazol-5-yl)ureido)naphthalen-1-yl)oxy)pyrimidin-2-yl)amino)-2-methoxy-N-(2-morpholinoethyl)benzamide], for which the IC50 in data set [1] stood at 525 nM; in data set [2], 22 nM; in data set [4], 8.9 nM; in data set [5], 2 nM; in data set [7], 1.5 nM. Besides, the EC50 in data set [3] is 0.6 nM. For the same molecule, the “Cell viability at time point in d-U937 cells, 4 h” value in data set [6] was “−ve (−ve and +ve indicate that the value is below and above respectively, the no significant effect threshold, defined as 30% inhibition at 1 μg/mL at the time point indicated)”. The “Cell viability at time point … 24 h” value in data set [6] was “−ve (−ve and +ve indicate that the value is below and above respectively, the no significant effect threshold, defined as 30% inhibition at 1 μg/mL at the time point indicated)”.
Take `COc1cc(C(=O)NCCO)ccc1Nc1nccc(Oc2ccc(NC(=O)Nc3cc(C(C)C)nn3-c3ccc(C)cc3)c3ccccc23)n1` [Example 39, N-(2-hydroxyethyl)-4-((4-((4-(3-(3-isopropyl-1-(p-tolyl)-1H-pyrazol-5-yl)ureido)naphthalen-1-yl)oxy)pyrimidin-2-yl)amino)-3-methoxybenzamide]: the IC50 in data set [1] was > 14600 nM; in data set [2] it was 130 nM; in data set [4], 146 nM; in data set [5], 8 nM; in data set [7] it was 15.7 nM. The EC50 in data set [3] was found to be 3.6 nM. In data set [6], the “Cell viability at time point in d-U937 cells, 4 h” value is “−ve (−ve and +ve indicate that the value is below and above respectively, the no significant effect threshold, defined as 30% inhibition at 1 μg/mL at the time point indicated)”. In addition, the “Cell viability at time point … 24 h” value in data set [6] was “−ve (−ve and +ve indicate that the value is below and above respectively, the no significant effect threshold, defined as 30% inhibition at 1 μg/mL at the time point indicated)”.
For `COc1cc(C(=O)NCCN(C)C)ccc1Nc1nccc(Oc2ccc(NC(=O)Nc3cc(C(C)C)nn3-c3ccc(C)cc3)c3ccccc23)n1` [Example 35, N-(2-(dimethylamino)ethyl)-4-((4-((4-(3-(3-isopropyl-1-(p-tolyl)-1H-pyrazol-5-yl)ureido)naphthalen-1-yl)oxy)pyrimidin-2-yl)amino)-3-methoxybenzamide], the IC50 in data set [1] is > 14000 nM; in data set [2] it was 30 nM; in data set [4], 140 nM; in data set [5] it was < 1 nM; in data set [7] it was 3.2 nM. Further, the EC50 in data set [3] turned out to be 27.8 nM. For the same molecule, the “Cell viability at time point in d-U937 cells, 4 h” value in data set [6] was “−ve (−ve and +ve indicate that the value is below and above respectively, the no significant effect threshold, defined as 30% inhibition at 1 μg/mL at the time point indicated)”. The “Cell viability at time point … 24 h” value in data set [6] was “−ve (−ve and +ve indicate that the value is below and above respectively, the no significant effect threshold, defined as 30% inhibition at 1 μg/mL at the time point indicated)”.
On to `CCCNC(=O)c1cccc(Nc2nccc(Oc3ccc(NC(=O)Nc4cc(C(C)(C)C)nn4-c4ccc(OC)cc4)c4ccccc34)n2)c1` [Example 17, 3-(4-(4-(3-(3-tert-butyl-1-(4-methoxyphenyl)-1H-pyrazol-5-yl)ureido)naphthalen-1-yloxy)pyrimidin-2-ylamino)-N-propylbenzamide], for which the IC50 in data set [1] was 309 nM; in data set [2], 35 nM; in data set [4] it was 2.6 nM; in data set [5], 3 nM; in data set [7] it was 1.8 nM. For the same molecule, the EC50 in data set [3] came out at 1.5 nM. Further, in data set [6], the “Cell viability at time point in d-U937 cells, 4 h” value is “−ve (−ve and +ve indicate that the value is below and above respectively, the no significant effect threshold, defined as 30% inhibition at 1 μg/mL at the time point indicated)”. Also, the “Cell viability at time point … 24 h” value in data set [6] was “−ve (−ve and +ve indicate that the value is below and above respectively, the no significant effect threshold, defined as 30% inhibition at 1 μg/mL at the time point indicated)”.
As to `COc1ccc(C(=O)NCCN2CCOCC2)cc1Nc1nccc(Oc2ccc(NC(=O)Nc3cc(C(C)(C)C)nn3-c3ccc(C)cc3)c3ccccc23)n1` [Example 31, 3-((4-((4-(3-(3-(tert-butyl)-1-(p-tolyl)-1H-pyrazol-5-yl)ureido)naphthalen-1-yl)oxy)pyrimidin-2-yl)amino)-4-methoxy-N-(2-morpholinoethyl)benzamide], the IC50 was determined as 9630 nM in data set [1]; 51 nM in data set [2]; 12 nM in data set [4]; 3 nM in data set [5]; 7.1 nM in data set [7]. Also, the EC50 in data set [3] was found to be 2.8 nM. For the same molecule, the “Cell viability at time point in d-U937 cells, 4 h” value in data set [6] was “−ve (−ve and +ve indicate that the value is below and above respectively, the no significant effect threshold, defined as 30% inhibition at 1 μg/mL at the time point indicated)”. In addition, the “Cell viability at time point … 24 h” value in data set [6] is “−ve (−ve and +ve indicate that the value is below and above respectively, the no significant effect threshold, defined as 30% inhibition at 1 μg/mL at the time point indicated)”.
`COc1cc(C(=O)NCCN2CCOCC2)ccc1Nc1nccc(Oc2ccc(NC(=O)Nc3cc(C(C)(C)C)nn3-c3ccc(C)cc3)c3ccccc23)n1` [Example 37, 4-((4-((4-(3-(3-(tert-butyl)-1-(p-tolyl)-1H-pyrazol-5-yl)ureido)naphthalen-1-yl)oxy)pyrimidin-2-yl)amino)-3-methoxy-N-(2-morpholinoethyl)benzamide]: the IC50 was > 13000 nM in data set [1]; 149 nM in data set [2]; 19.6 nM in data set [4]; 27 nM in data set [5]; 24.1 nM in data set [7]. For the same molecule, the EC50 in data set [3] was determined as 3.7 nM. For the same molecule, in data set [6], the “Cell viability at time point in d-U937 cells, 4 h” value was “−ve (−ve and +ve indicate that the value is below and above respectively, the no significant effect threshold, defined as 30% inhibition at 1 μg/mL at the time point indicated)”. Moreover, the “Cell viability at time point … 24 h” value in data set [6] was “−ve (−ve and +ve indicate that the value is below and above respectively, the no significant effect threshold, defined as 30% inhibition at 1 μg/mL at the time point indicated)”.
Regarding `COc1cc(Nc2nccc(Oc3ccc(NC(=O)Nc4cc(C(F)(F)F)nn4-c4ccc(C)cc4)c4ccccc34)n2)cc(C(=O)NCCN2CCOCC2)c1` [Example 48, 3-methoxy-N-(2-morpholinoethyl)-5-((4-((4-(3-(1-(p-tolyl)-3-(trifluoromethyl)-1H-pyrazol-5-yl)ureido)naphthalen-1-yl)oxy)pyrimidin-2-yl)amino)benzamide], the IC50 in data set [1] is > 12800 nM; in data set [2], 78 nM; in data set [4], 32.3 nM; in data set [5] it was 5 nM; in data set [7], 20.6 nM. Further, the EC50 in data set [3] came to 3.5 nM. The “Cell viability at time point in d-U937 cells, 4 h” value in data set [6] was “−ve (−ve and +ve indicate that the value is below and above respectively, the no significant effect threshold, defined as 30% inhibition at 1 μg/mL at the time point indicated)”. Further, in data set [6], the “Cell viability at time point … 24 h” value was “−ve (−ve and +ve indicate that the value is below and above respectively, the no significant effect threshold, defined as 30% inhibition at 1 μg/mL at the time point indicated)”.
